{
  "source": "patent US11266655B2",
  "about": "“Methods and compositions for treating urea cycle disorders” (Camp4 Therapeutics Corporation, priority 2019, dated 2022)",
  "key": {"CPS1": {"system": "CPS1", "assay": "RNA-seq of compound-treated primary human hepatocytes, CPS1 expression", "type": "cell-based", "conditions": "primary human hepatocytes, triplicate (Table 19, FIG. 11)"}, "ARG1": {"system": "ARG1", "assay": "RNA-seq of compound-treated primary human hepatocytes, ARG1 expression", "type": "cell-based", "conditions": "for Relative ARGI level vs Untreated (±Standard Deviation): triplicate (Table 17, FIG. 9)"}, "NAGS": {"system": "NAGS", "type": "cell-based, human"}, "SLC25A15": {"system": "SLC25A15", "assay": "RNA-seq of compound-treated primary human hepatocytes, SLC25A15 expression", "type": "cell-based", "conditions": "for Relative SLC25A15 level vs Untreated (±Standard Deviation): primary human hepatocytes, triplicate (Table 24, FIG. 16A-B); for Increase in SLC25A15 gene expression (qualitative): Example 11, relative mRNA vs DMSO"}, "urea cycle genes": {"system": "urea cycle genes", "assay": "RNA-seq of primary human hepatocytes, compounds that modulate multiple urea cycle-related genes", "type": "cell-based", "conditions": "primary human hepatocytes, RNA-seq; for Up-regulated Genes: urea cycle-related genes significantly increased (Table 10)"}, "ASS1": {"system": "ASS1", "assay": "RNA-seq of compound-treated primary human hepatocytes, ASS1 expression", "type": "cell-based", "conditions": "primary human hepatocytes; for Relative ASS1 level vs Untreated (±Standard Deviation): triplicate (Table 15, FIG. 7)"}, "[1]": {"conditions": "3 μM, primary human hepatocytes"}, "[2]": {"conditions": "10 μM, primary human hepatocytes"}, "[3]": {"conditions": "10 μM, primary human hepatocytes, triplicate (Table 21, FIG. 13)"}, "[4]": {"conditions": "primary human hepatocytes, RNA-seq (Table 6)"}, "[5]": {"conditions": "0.3 μM, primary human hepatocytes, triplicate (Table 21, FIG. 13)"}, "[6]": {"conditions": "3 μM, primary human hepatocytes, triplicate (Table 21, FIG. 13)"}},
  "note": "Where a name gives a salt, the structure may show the parent alone. Read-outs that look alike come from different tables or passages of the source.",
  "data": [
    {"molecule": "O=C(NCCCNc1nc(Nc2cccc(NC(=O)N3CCCC3)c2)ncc1I)c1cccs1", "note": "[BX795]", "values": [
      {"measurement": "Relative CPS1 level vs Untreated (±Standard Deviation)", "setting": "CPS1; 3 μM", "value": "1.75 ± 1.03"},
      {"measurement": "Relative ARGI level vs Untreated (±Standard Deviation)", "setting": "ARG1; [1]", "value": "1.33 ± 0.43"},
      {"measurement": "Relative ARGI level vs Untreated (±Standard Deviation)", "setting": "ARG1; [2]", "value": "1.34 ± 0.41"}
    ]},
    {"molecule": "CCN(CC)CCCCNc1ncc2cc(-c3cc(OC)cc(OC)c3)c(NC(=O)NC(C)(C)C)nc2n1", "note": "[PD173074]", "values": [
      {"measurement": "Relative NAGS level vs Untreated (±Standard Deviation)", "setting": "NAGS; [3]", "value": "1.30 ± 0.31"},
      {"measurement": "Relative SLC25A15 level vs Untreated (±Standard Deviation)", "setting": "SLC25A15; 3 μM", "value": "1.30 ± 0.12"},
      {"measurement": "Relative CPS1 level vs Untreated (±Standard Deviation)", "setting": "CPS1; 3 μM", "value": "1.35 ± 0.03"}
    ]},
    {"molecule": "C[C@]12C=CC(=O)C=C1CC[C@@H]1[C@@H]2C(=O)C[C@@]2(C)[C@H]1CC[C@]2(O)C(=O)CO", "note": "[prednisone]", "values": [
      {"measurement": "Fold change (Log 2) vs untreated, NAGS expression", "setting": "NAGS; [4]", "value": 1, "unit": "Log 2"},
      {"measurement": "number of urea cycle genes whose expression was significantly up-regulated", "setting": "urea cycle genes", "value": "three"},
      {"measurement": "Up-regulated Genes", "setting": "urea cycle genes", "value": "CPS1, NAGS, ARG1"}
    ]},
    {"molecule": "CCc1ccc(CCOc2ccc(CC3SC(=O)NC3=O)cc2)nc1", "note": "(stereo not drawn) [Pioglitazone HCl]", "values": [
      {"measurement": "Relative NAGS level vs Untreated (±Standard Deviation)", "setting": "NAGS; [5]", "value": "1.33 ± 0.02"}
    ]},
    {"molecule": "O=C(NOCCO)c1cc(CN2OCCCC2=O)c(F)c(F)c1Nc1ccc(I)cc1F", "note": "[Compound R04987655]", "values": [
      {"measurement": "Relative CPS1 level vs Untreated (±Standard Deviation)", "setting": "CPS1; 1 μM", "value": "1.46 ± 0.27"},
      {"measurement": "Relative CPS1 level vs Untreated (±Standard Deviation)", "setting": "CPS1; 10 μM", "value": "1.33 ± 0.21"}
    ]},
    {"molecule": "Cc1cc(C(=O)NOCCO)c(Nc2ccc(I)cc2F)n(C)c1=O", "note": "[AZD8330]", "values": [
      {"measurement": "Relative CPS1 level vs Untreated (±Standard Deviation)", "setting": "CPS1; 0.3 μM", "value": "1.33 ± 0.03"},
      {"measurement": "Relative CPS1 level vs Untreated (±Standard Deviation)", "setting": "CPS1; 3 μM", "value": "1.60 ± 0.24"}
    ]},
    {"molecule": "CCn1c(=O)c(-c2cc[nH]n2)cc2c(C)nc(N)nc21", "note": "[Voxtalisib]", "values": [
      {"measurement": "Relative ASS1 level vs Untreated (±Standard Deviation)", "setting": "ASS1; 10 μM", "value": "1.43 ± 0.13"},
      {"measurement": "Relative NAGS level vs Untreated (±Standard Deviation)", "setting": "NAGS; [5]", "value": "1.35 ± 0.04"},
      {"measurement": "Relative NAGS level vs Untreated (±Standard Deviation)", "setting": "NAGS; [6]", "value": "1.33 ± 0.15"},
      {"measurement": "Relative NAGS level vs Untreated (±Standard Deviation)", "setting": "NAGS; [3]", "value": "1.78 ± 0.04"},
      {"measurement": "Relative ARGI level vs Untreated (±Standard Deviation)", "setting": "ARG1; [1]", "value": "1.34 ± 0.16"},
      {"measurement": "Relative ARGI level vs Untreated (±Standard Deviation)", "setting": "ARG1; [2]", "value": "1.48 ± 0.18"}
    ]},
    {"molecule": "O=C1NC(=O)/C(=C/c2cccc(C(F)(F)F)c2)S1", "note": "[SMI-4a]", "values": [
      {"measurement": "Fold change (Log 2) vs untreated, ASS1 expression", "setting": "ASS1; RNA-seq (Table 4)", "value": 0.69, "unit": "Log 2"},
      {"measurement": "Fold change (Log 2) vs untreated, NAGS expression", "setting": "NAGS", "value": 1.25, "unit": "Log 2"}
    ]},
    {"molecule": "CS[C@H]1SC[C@H]2C(=O)N(C)[C@@H](C(C)C)C(=O)OC[C@@H](NC(=O)c3cnc4ccccc4n3)C(=O)N[C@@H](C)C(=O)N(C)[C@@H]1C(=O)N(C)[C@@H](C(C)C)C(=O)OC[C@@H](NC(=O)c1cnc3ccccc3n1)C(=O)N[C@@H](C)C(=O)N2C", "note": "[Echinomycin]", "values": [
      {"measurement": "Increase in SLC25A15 gene expression (qualitative)", "setting": "SLC25A15", "value": "greatest increase"},
      {"measurement": "number of urea cycle genes whose expression was significantly up-regulated", "setting": "urea cycle genes", "value": "six"}
    ]},
    {"molecule": "TNF-a", "values": [
      {"measurement": "Fold change (Log 2) vs untreated, ARG1 expression", "setting": "ARG1; primary human hepatocytes, RNA-seq (Table 7)", "value": 1.87, "unit": "Log 2"}
    ]},
    {"molecule": "Cc1ccc(F)c(NC(=O)Nc2ccc(-c3cccc4[nH]nc(N)c34)cc2)c1", "note": "[Linifanib]", "values": [
      {"measurement": "Relative NAGS level vs Untreated (±Standard Deviation)", "setting": "NAGS; [6]", "value": "1.32 ± 0.04"}
    ]},
    {"molecule": "O=C(NOCCO)c1cc(CN2OCCCC2=O)c(F)c(F)c1Nc1ccc(I)cc1F", "note": "[RO4987655)]", "values": [
      {"measurement": "Relative SLC25A15 level vs Untreated (±Standard Deviation)", "setting": "SLC25A15; 10 μM", "value": "1.31 ± 0.13"}
    ]},
    {"molecule": "O=C1CCC(N2C(=O)c3ccccc3C2=O)C(=O)N1", "note": "(stereo not drawn) [Thalidomide]", "values": [
      {"measurement": "Fold change (Log 2) vs untreated, NAGS expression", "setting": "NAGS; [4]", "value": 1.1, "unit": "Log 2"},
      {"measurement": "number of urea cycle genes whose expression was significantly up-regulated", "setting": "urea cycle genes", "value": "five"},
      {"measurement": "Up-regulated Genes", "setting": "urea cycle genes", "value": "NAGS, CPS1, ALS, OTC, ARG1"}
    ]},
    {"molecule": "NC(=O)c1ccc(I)c([N+](=O)[O-])c1", "note": "[Iniparib]", "values": [
      {"measurement": "Relative NAGS level vs Untreated (±Standard Deviation)", "setting": "NAGS; [5]", "value": "1.41 ± 0.00"},
      {"measurement": "Relative CPS1 level vs Untreated (±Standard Deviation)", "setting": "CPS1; 3 μM", "value": "1.44 ± 0.01"},
      {"measurement": "Relative ARGI level vs Untreated (±Standard Deviation)", "setting": "ARG1; [1]", "value": "1.32 ± 0.15"}
    ]},
    {"molecule": "CC(C)c1cc(CNc2nc(Nc3cc(C4CC4)[nH]n3)cc(N3CCN(C)CC3)n2)on1", "note": "[XL228]", "values": [
      {"measurement": "Relative ASS1 level vs Untreated (±Standard Deviation)", "setting": "ASS1; 1 μM", "value": "1.83 ± 0.02"},
      {"measurement": "Relative ASS1 level vs Untreated (±Standard Deviation)", "setting": "ASS1; 3 μM", "value": "1.45 ± 0.10"},
      {"measurement": "Relative ASS1 level vs Untreated (±Standard Deviation)", "setting": "ASS1; 10 μM", "value": "2.05 ± 0.00"},
      {"measurement": "Increase in SLC25A15 gene expression (qualitative)", "setting": "SLC25A15", "value": "greatest increase"},
      {"measurement": "Relative ARGI level vs Untreated (±Standard Deviation)", "setting": "ARG1; 0.3 μM, primary human hepatocytes", "value": "1.47 ± 0.11"},
      {"measurement": "Relative ARGI level vs Untreated (±Standard Deviation)", "setting": "ARG1; 1 μM, primary human hepatocytes", "value": "2.05 ± 0.11"},
      {"measurement": "Relative ARGI level vs Untreated (±Standard Deviation)", "setting": "ARG1; [1]", "value": "2.15 ± 0.04"},
      {"measurement": "increase in ARG1 gene expression (Tables 17, 18, FIG. 9, 10)", "setting": "ARG1; Example 11, relative mRNA vs DMSO", "value": "greatest increase"}
    ]},
    {"molecule": "N#CCNC(=O)c1ccc(-c2ccnc(Nc3ccc(N4CCOCC4)cc3)n2)cc1", "note": "[Momelotinib]", "values": [
      {"measurement": "number of urea cycle genes whose expression was significantly up-regulated", "setting": "urea cycle genes", "value": "three"},
      {"measurement": "Up-regulated Genes", "setting": "urea cycle genes", "value": "CPS1, OTC, ARG1"}
    ]},
    {"molecule": "O=C(N[C@H]1CN2CCC1CC2)c1cc2cccc(Cl)c2s1", "note": "[EVP-6124 (hydrochloride) (encenicline), encenicline]", "values": [
      {"measurement": "Fold change (Log 2) vs untreated, NAGS expression", "setting": "NAGS; [4]", "value": 0.75, "unit": "Log 2"}
    ]},
    {"molecule": "NC(=O)c1ccc(I)c([N+](=O)[O-])c1", "note": "[Iniparib (BSI-]", "values": [
      {"measurement": "Relative NAGS level vs Untreated (±Standard Deviation)", "setting": "NAGS", "value": "1.35 ± 0.27"}
    ]}
  ]
}
